Where two headings read alike, the source gives them in different places. Where no end group is shown, it is not given here.
Tests used:
E. coli mgrB mutant 23# = assay: Lethal murine acute peritonitis model; format: in vivo, mouse (female BALB/c); details: for survival versus PBS treatment group (log-rank test): AMP_2 single IP dose, penicillin 50000 units per kg every 12 h for 3 d
Experimental: Female BALB/c mice weighing ≈18 g and aged 5–6 weeks were used to build a lethal murine acute peritonitis model according to previously established protocols.^[ [43], [44], [45] ^] The mice were subjected to intraperitoneal injections with E. colimgrB mutant 23^#suspension (0.2 mL per mouse) at concentration of 5×10^5 CFU mL^−1, 5×10^6 CFU mL^−1, 5×10^7 CFU mL^−1, respectively. […] Each group comprised of eight mice.
Subsequently, the mice were administered varying doses of AMP_2 (0.125, 0.25, 0.5, 1, 2, and 4 mg kg^−1) immediately after infection. As controls, the infected mice received intraperitoneal injections of sterile PBS or underwent penicillin treatment (0.2 mL per mouse). The single dose of penicillin administered was 50000 units per kg, and the mice received antibiotic treatment every 12 h for 3 d. The behavior and survival of the animals were monitored over a 7‐day period. Blood samples were collected from the mice before euthanasia for routine blood tests. The experiments were conducted in groups of eight mice.

[1] = 1 µg mL−1 (0.35 µM); cited from earlier work
Description: (§1) In general, a higher antimicrobial potency in antimicrobial peptides often correlates with an elevated risk of heightened cytotoxicity and hemolytic activity. […] However, even at a ...

human cell = details: 10 µg mL−1 (3.5 µM); cited from earlier work
Description: as §1

E. coli [2] = details: cited from earlier work
Description: as §1

E. coli DH5α = assay: TEM of cell membrane damage; format: cell-based, Escherichia coli; details: 1× MIC, 2–8 h, 37 °C
Experimental: Transmission Electron Microscopy (TEM) was employed to assess the cell membrane damage induced by AMPs. First, 50 µL of E. coli DH5α culture with an OD600 of ≈0.1 were mixed with 50 µL of AMPs solution (at 1× MIC) in a 96‐well plate. This mixture was incubated at 37 °C for 2, 4, 8, and 16 h. Following the incubation period, the bacteria were pelleted by centrifugation at 6,000 rpm for 5 min and fixed with 2.5% (vol/vol) glutaraldehyde in phosphate buffer (PB, 0.1 M, pH 7.4). Subsequently, the cells were postfixed with 1% (wt/vol) osmium tetraoxide in PB for 2 h at 4 °C, and were dehydrated through a graded ethanol series (30%, 50%, 70%, 80%, 90%, 100%, with each step lasting 7 min) before being put in pure acetone by two 10‐min steps. Following dehydration, the samples were subjected to infiltration using progressively mixed combinations of acetone and SPI‐PON812 resin (composed of 16.2 g SPI‐PON812, 10 g DDSA, and 8.9 g NMA) in ratios of 3:1, 1:1, and 1:3. The infiltration medium was then replaced with pure resin. Finally, the cells were embedded in pure resin containing 1.5% BDMA and polymerized for 12 h at 45 °C, followed by an additional 48 h polymerization at 60 °C. Ultrathin sections (70 nm thick) were obtained using a microtome (Leica EM UC6), double‐stained with uranyl acetate and lead citrate, and examined using a transmission electron microscope (FEI Tecnai Spirit 120 kV).

all tested bacteria = format: cell-based
Description: Gram‐negative bacteria include E. coli DH5α, E. coli O157: H7 CICC 21530, S. typhimurium CICC 21484, A. baumannii AB6, and P. aeruginosa ATCC 15442. Gram‐positive bacteria included S. aureus ATCC 33591, Methicillin‐resistant MRSA ATCC 43300, B. subtilis ATCC 9372. L. sphaericus CCM 2177. Two E. coli clinical isolates with mgrB mutations from Tongji Hospital (Wuhan, China) were used in this study, namely E. coli mgrB mutant 2^# and E. coli mgrB mutant 23^#.
(§2) For the MIC determination of selected AMPs, 100 ul bacterial culture with an OD600 value of ≈0.1 was incubated with AMPs at concentrations ranging from 0 to 100 µM at 37 °C for 15–18 h. Herein, the MIC was determined as the minimum concentration of AMPs at which no detectable bacterial growth was observed.
(§3) All experiments were conducted with a minimum of four independent replicates. Student's t‐test was used to compare the means between the experimental and control groups (two‐sided).

[3] = Cytotoxicity against mammalian cells (CCK-8); format: cell-based; details: human, 293T, CCK-8, n = 6, read-out: half maximal inhibitory concentration (IC50), cytotoxicity
Experimental: Cell Counting Kit 8 (CCK‐8) assay was used to assess the cytotoxicity of the AMPs against mammalian cells. Specifically, ≈4000 293T cells were seeded per well in a 96‐well cell culture plate (Corning, US), and were incubated at 37 °C with 5% CO2 for 24 h. Subsequently, the culture medium was replaced by different concentrations of AMPs solution diluted with the medium. The cells were co‐incubated with AMPs solution for an additional 24 h at 37 °C. And then, 10 µl of the CCK‐8 reagent (Beijing Lablead Biotech, China) was added to each well for 2 h of incubation at 37 °C. Finally, OD at 450 nm was measured using an imaging multimode microplate reader (Cytation 3, BioTek, US). Cell viability was defined as the percentage of each concentration relative to the control. Six replicates were used for the CCK‐8 assay.

E. coli [4] = format: cell-based, Escherichia coli
Experimental: as §2, §3

Row | Substance | survival versus PBS treatment group (log-rank test) (E. coli mgrB mutant 23#; 8 mice per group) | hemolysis of cells [1] | human cell death (human cell) | MIC (E. coli [2]) | body weight by the sixth day post-infection (E. coli mgrB mutant 23#; 4 mg kg−1 IP, surviving infected mice) | routine blood components, treatment versus control group (E. coli mgrB mutant 23#; blood collected before euthanasia, infected mice treated with AMP_2) | protection of infected mice (survival) (E. coli mgrB mutant 23#; single IP dose 0.5 mg kg−1 immediately after infection, 5×10^5 CFU mL−1, 7-day observation, 8 mice per group) | bacterial morphology by TEM (E. coli DH5α) | MIC / spectrum against the tested bacteria (all tested bacteria) | IC50 at 24 h [3] | MIC (E. coli [4])
1 | penicillin [reference compound] | no significant difference |  |  |  |  |  |  |  |  |  | 
2 | melittin |  | 50% | > 50% | 1 to 15 µM |  |  |  |  |  |  | 
3 | KWKFFKKIRKVGKKIRKVIKKIGKAVGAAAQAAGQAANA [AMP_2] | significant differences in survival |  |  |  | slight decrease in body weight | not significantly different | complete protection | serious leakage of cellular contents | ≤ 20 µM | > 40 µM | 2.5 µM

Source: article PMC11578372, “ProT‐Diff: A Modularized and Efficient Strategy for De Novo Generation of Antimicrobial Peptide Sequences by Integrating Protein Language and Diffusion Models” (Advanced Science, 2024)
